Source: publication PMC13462928 (Nature Communications, 2026)
Where two headings read alike, the source gives them in different places. Values belong to the compound of their own block, whether it stands above or below them.

Assays:
NUDT5 [1] = molecular target: T1, NUDT5 (Homo sapiens, UniProt Q96SW2+Q9UKK9); experiment: Western blot NUDT5 degradation in HEK293 cells; assay type: cell-based; settings: 20 h, Western blot; for Dmax: read-out: apparent Dmax of NUDT5 degradation
Experimental: (§1) Pellets were lysed on ice using RIPA buffer (25 mM Tris (pH 7.5), 150 mM NaCl, 1% Igepal, 1% SDS, 0.1% SDC, 1x protease inhibitor (Roche, cOmplete mini, 11836170001), 1x phosphatase (Thermo Scientific, Halt, 78429), 0.1% benzonase (Merck, E1014-5KU)), incubated for 15 min and then centrifuged for 20 min at 4 °C at maximum speed in a table-top centrifuge. […] Membranes were blocked with 6% milk in PBS-T for 1 h at RT, washed, and then incubated with primary antibody diluted in PBS-T supplemented with 0.1% NaN3 overnight at 4 °C. Membranes were incubated with fluorophore-conjugated secondary antibodies, Alexa Fluor 680 anti-rabbit IgG (Life Technologies, A21109), Alexa Fluor 750 anti-mouse IgG (Life Technologies, A21037) diluted 1:5000 in 2% milk PBS-T, washed and imaged with an Odyssey imager (Licor).

NUDT5 [2] = molecular target: T2, NUDT5 (Homo sapiens, UniProt Q9UKK9); experiment: Western blot NUDT5 degradation in HEK293 cells; assay type: cell-based; settings: 20 h, Western blot, read-out: DC50 (half-maximal degradation concentration) of NUDT5
Experimental: as §1

NUDT5 [3] = molecular target: T1, NUDT5; experiment: Western blot NUDT5 degradation in HEK293 CRBN KO cells; assay type: cell-based; parameters: endogenous in cells; host or cells: HEK293 (CRBN KO); settings: 100 nM, 20 h
Experimental: as §1

HAP1 cells = experiment: Titration of NUDT5 degraders and controls against fixed 6-TG (2 µg/mL) in HAP1 cells, cell viability; assay type: cell-based, human; settings: HAP1, 2 µg/mL 6-TG, 72 h
Experimental: Cells were counted and adjusted to a density of 25,000 cells/mL in culture medium. […] Plates were sealed with breathable film and incubated at 37 °C with 5% CO₂ for 72 hours. Cell viability was assessed using the CellTiter-Glo Luminescent Cell Viability Assay, following the manufacturer’s protocol (Promega). Luminescence was measured using a PHERAstar FS or FSX plate reader, and data were analyzed using GraphPad Prism software (versions 9 or 10). Results were normalized to the vehicle control (DMSO).

[4] = molecular target: NUDT5 and the respective E3 ligase (Homo sapiens, UniProt P40337+Q9UKK9); experiment: NanoBRET ternary complex formation assay NUDT5 and the respective E3 ligase (VHL or CRBN) in HEK293 cells; assay type: cell-based; settings: for Ternary complex formation below 1 µM (4 h): HEK293, 4 h; for Ternary complex formation below 1 µM (20 h): HEK293, 20 h
Experimental: NanoBRET ternary complex assays were performed following the manufacturer’s instructions (Promega). […] After 4 h or 20 h of incubation, a mix of substrate in assay medium was added to each well. Donor and acceptor signals were measured in a PHERAstar FSX or FS plate reader and analyzed by GraphPad Prism (v.9 or v.10). The acceptor/donor ratio was calculated, the no ligand background signal was subtracted, and multiplied by 1000 to yield mBRET units. Data were then normalized to DMSO.

HEK293 cells = experiment: Untargeted global proteomics of HEK293 cells; assay type: cell-based, human; settings: 100 nM, 24 h; for total proteome analysis, downregulated proteins: 7135 quantified proteins
Experimental: Proteomics samples were digested with trypsin using STrap columns following the manufacturer’s protocol (C02-micro, ProtiFi). […] Then, the cell pellets were collected and lysed in 5% SDS containing 1 μL/mL benzonase (E1014, Millipore) and subsequently short sonication to shear genomic DNA (1×2 s pulse, 20% amplitude, microtip, Sonics Vibra Cell). 50 μg protein from the total cell lysate or 80% of the elution fraction of the chemical pulldown were first reduced by 20 mM dithiothreitol (M02712, Fluorochem), and alkylated by 40 mM iodoacetamide (I1149, Sigma). Phosphoric acid and S-Trap protein binding buffer were added to the sample lysates. Then, the SDS lysate/S-Trap buffer were loaded into a S-Trap column (C02-micro-80, ProtiFi). 1 μg of trypsin (V5111, Promega) was used to digest each sample at 37 °C for 20 h. The samples were then eluted and dried by vacuum centrifugation. Peptide pellets were resuspended in mass spectrometry-grade water with 2% acetonitrile (85188, Thermo Scientific) and 0.1% trifluoroacetic acid (85183, Thermo Scientific). The samples were injected into Orbitrap Fusion Lumos Tribrid Mass Spectrometer (Thermo Scientific). Sample acquisition was performed as previously described.
Raw data were searched against the human database (UP000005640, downloaded 08/21) using DIA-NN (v.1.8.1)[48] by enabling FASTA digest for library-free search and Deep learning-based spectra, RTs, and IMs prediction. Trypsin/P was selected for the in silico digestion of the provided FASTA file, allowing up to 2 missed cleavages. Fixed modifications included N-terminal methionine excision and cysteine carbamidomethylation. Variable modifications were methionine oxidation and N-terminal acetylation, with a maximum of one modification per precursor. Precursor FDR was kept at 1% and MBR enabled. The protein groups matrix was further analysed using Perseus (2.0.9.0)[49] or R studio (4.3.2). Potential contaminants were filtered against the top 300 most common Homo sapiens contaminants reported in CRAPome[50]. Proteins were removed if detected less than 70% across all runs. After column-wise normalisation by median subtraction, missing values were imputed by random numbers from a normal distribution (1.8 standard deviation, downshift width 0.3). Volcano plots were generated by calculating fold change and -log10(p-value) from an unpaired two-sided Student’s t-test.

NUDT5 [5] = molecular target: T1, NUDT5; experiment: Western blot NUDT5 degradation in HAP1 cells; assay type: cell-based; parameters: endogenous in cells; host or cells: HAP1; settings: HAP1 cells, Western blot, Fig. 3B
Experimental: as §1

NUDT5 [6] = molecular target: T2, NUDT5; experiment: NanoBRET NUDT5 target engagement (TE) assay in HEK293 cells; assay type: cell-based; parameters: expressed in transfected cells; host or cells: HEK293
HAP1 cell lines = experiment: TH1760/6-TG cell viability assay in HAP1 cell lines; assay type: cell-based, human; settings: 72 h
Experimental: After 72 h incubation, cell viability was measured using the CellTiter-Glo assay (Promega). Signals were normalized to the control condition.

[7] = read-out: EC50 (µM), TE 4h, HEK293, 4 h, Supplementary Table 1

Chain of NUDT5 and the respective E3 ligase (P40337 whole entry, one chain of several): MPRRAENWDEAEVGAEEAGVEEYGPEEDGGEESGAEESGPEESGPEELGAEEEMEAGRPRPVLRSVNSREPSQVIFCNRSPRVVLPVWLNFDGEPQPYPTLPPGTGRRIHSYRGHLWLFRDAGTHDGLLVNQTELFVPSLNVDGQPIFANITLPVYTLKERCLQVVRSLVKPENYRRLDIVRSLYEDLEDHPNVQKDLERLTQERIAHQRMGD

Compound: Cc1ncsc1-c1ccc(CNC(=O)C2CC(O)CN2C(=O)C(NC(=O)CCCCCOCCOCCOCCCCCCN2CCCC(n3nc(-c4ccc(Oc5ccccc5)cc4)c4c(N)ncnc43)C2)C(C)(C)C)cc1 (stereo not drawn) [ASM73]
- Ternary complex formation below 1 µM (20 h) ([4]; Supplementary Table 1): No
- EC50 (NUDT5 [6]; [7]): > 10 µM

Compound: Cc1ncsc1-c1ccc(CNC(=O)C2CC(O)CN2C(=O)C(NC(=O)COCCOCCCCCCC(=O)N2CCC(n3nc(-c4ccc(Oc5ccccc5)cc4)c4c(N)ncnc43)CC2)C(C)(C)C)cc1 (stereo not drawn) [ASM74]
- Ternary complex formation below 1 µM (20 h) ([4]; Supplementary Table 1): No
- EC50 (NUDT5 [6]; [7]): > 10 µM

Compound: Nc1ncnc2c1c(-c1ccc(Oc3ccccc3)cc1)nn2C1CCN(CCOCCOCC(=O)Nc2ccc3c(c2)C(=O)N(C2CCC(=O)NC2=O)C3=O)CC1 (stereo not drawn) [MT-802, reference compound]
- Ternary complex formation below 1 µM (20 h) ([4]; Supplementary Table 1): No
- EC50 (NUDT5 [6]; [7]): 1.3 µM

Compound: Cc1ncsc1-c1ccc(CNC(=O)C2CC(O)CN2C(=O)C(NC(=O)COCCOCCCCCCC(=O)N2CCCC(n3nc(-c4ccc(Oc5ccccc5)cc4)c4c(N)ncnc43)C2)C(C)(C)C)cc1 (stereo not drawn) [ASM75]
- Ternary complex formation below 1 µM (20 h) ([4]; Supplementary Table 1): No
- EC50 (NUDT5 [6]; [7]): > 10 µM

Compound: O=C(c1ccc2[nH]ccc2c1)N1CCN(S(=O)(=O)c2ccc3[nH]c(=O)oc3c2)CC1 [TH1760]
- sensitization of cells towards 6-TG (HAP1 cell lines; HAP1 WT, 6-TG 1 µM fixed): sensitized HAP1 WT cells towards 6-TG in a dose-dependent manner
- effect on cell viability without 6-TG (HAP1 cell lines; HAP1 cell lines, up to 50 µM): does not affect HAP1 cell viability

Compound: Cc1ncsc1-c1ccc(CNC(=O)C2CC(O)CN2C(=O)C(NC(=O)CCCCCOCCCCCOCCCCCCN2CCCC(n3nc(-c4ccc(Oc5ccccc5)cc4)c4c(N)ncnc43)C2)C(C)(C)C)cc1 (stereo not drawn) [ASM32]
- Ternary complex formation below 1 µM (20 h) ([4]; Supplementary Table 1): No
- EC50 (NUDT5 [6]; [7]): > 10 µM

More lines, main results first:

- Dmax (NUDT5 [1]): 71%
- DC50 (NUDT5 [2]): 12 nM
- Ternary complex formation below 1 µM (4 h) ([4]; Supplementary Table 2): Yes
- Ternary complex formation below 1 µM (20 h) ([4]; Supplementary Table 2): Yes
Compound: Cn1c(=O)c2c(nc(N3CCN(C(=O)CCOCCOCCOCCNc4cccc5c4C(=O)N(C4CCC(=O)NC4=O)C5=O)CC3)n2Cc2nnc(-c3ccc(Cl)c(Cl)c3)o2)n(C)c1=O (stereo not drawn) [ASM127]
- NUDT5 degradation in CRBN knockout cells (NUDT5 [3]): CRBN knockout (KO) prevents PROTAC-mediated degradation of NUDT5
- concentration of maximal rescue of cell viability (HAP1 cells): 50 to 100 nM
- effect on ZFP91 in global proteomics (HEK293 cells): slight effect on the zinc finger protein ZFP91
- total proteome analysis, downregulated proteins (HEK293 cells): NUDT5 as the most significantly downregulated protein

- Ternary complex formation below 1 µM (4 h) ([4]; Supplementary Table 2): Yes
- Ternary complex formation below 1 µM (20 h) ([4]; Supplementary Table 2): Yes
Compound: Cn1c(=O)c2c(nc(N3CCN(C(=O)CCOCCNc4cccc5c4C(=O)N(C4CCC(=O)NC4=O)C5=O)CC3)n2Cc2nnc(-c3ccc(Cl)c(Cl)c3)o2)n(C)c1=O (stereo not drawn) [ASM137]
- effect on NUDT5 protein levels (NUDT5 [1]): no significant effects on NUDT5 protein levels

- NUDT5 degradation (NUDT5 [5]): preventing NUDT5 degradation
- EC50 (NUDT5 [6]; HEK293 cells, Supplementary Fig. 6B, read-out: NUDT5 NanoBRET target engagement EC50): 0.028 µM
Compound: CN1C(=O)CCC(N2C(=O)c3ccc(N4CCN(CC5CCN(C(=O)N6CCN(c7nc8c(c(=O)n(C)c(=O)n8C)n7Cc7nnc(-c8ccc(Cl)c(Cl)c8)o7)CC6)CC5)CC4)cc3C2=O)C1=O (stereo not drawn) [dNUDT5nc]
- rescue of 6-TG-induced toxicity (HAP1 cells): failed to rescue cell viability
- NUDT5 engagement in live cells (NUDT5 [6]; NanoBRET): engaged their cognate target NUDT5 in live cells

- Dmax (NUDT5 [1]): 75%
- DC50 (NUDT5 [2]): 7 nM
- Ternary complex formation below 1 µM (4 h) ([4]; Supplementary Table 2): Yes
- Ternary complex formation below 1 µM (20 h) ([4]; Supplementary Table 2): Yes
Compound: Cn1c(=O)c2c(nc(N3CCN(C(=O)CCOCCOCCOCCOCCNc4cccc5c4C(=O)N(C4CCC(=O)NC4=O)C5=O)CC3)n2Cc2nnc(-c3ccc(Cl)c(Cl)c3)o2)n(C)c1=O (stereo not drawn) [ASM130]
- NUDT5 degradation in CRBN knockout cells (NUDT5 [3]): CRBN knockout (KO) prevents PROTAC-mediated degradation of NUDT5
- concentration of maximal rescue of cell viability (HAP1 cells): 50 to 100 nM
- effect on ZFP91 in global proteomics (HEK293 cells): slight effect on the zinc finger protein ZFP91
- total proteome analysis, downregulated proteins (HEK293 cells): NUDT5 as the most significantly downregulated protein

- Ternary complex formation below 1 µM (20 h) ([4]; Supplementary Table 2): Yes
Compound: Cn1c(=O)c2c(nc(N3CCN(C(=O)CCCNc4cccc5c4C(=O)N(C4CCC(=O)NC4=O)C5=O)CC3)n2Cc2nnc(-c3ccc(Cl)c(Cl)c3)o2)n(C)c1=O (stereo not drawn) [ASM111]
- effect on NUDT5 protein levels (NUDT5 [1]): no significant effects on NUDT5 protein levels

- Ternary complex formation below 1 µM (4 h) ([4]; Supplementary Table 2): Yes
- Ternary complex formation below 1 µM (20 h) ([4]; Supplementary Table 2): Yes
Compound: Cn1c(=O)c2c(nc(N3CCN(C(=O)CCCCCNc4cccc5c4C(=O)N(C4CCC(=O)NC4=O)C5=O)CC3)n2Cc2nnc(-c3ccc(Cl)c(Cl)c3)o2)n(C)c1=O (stereo not drawn) [ASM122]
- effect on NUDT5 protein levels (NUDT5 [1]): no significant effects on NUDT5 protein levels

- Ternary complex formation below 1 µM (20 h) ([4]; Supplementary Table 3): Yes
- EC50 (NUDT5 [6]; read-out: EC50 (nM) TE (4h), HEK293, 4 h, Supplementary Table 3): 0.102 µM
Compound: Cn1c(=O)c2c(nc(N3CCN(CCC4CCN(c5ccc6c(c5)C(=O)N(C5CCC(=O)NC5=O)C6=O)CC4)CC3)n2Cc2nnc(-c3ccc(Cl)c(Cl)c3)o2)n(C)c1=O (stereo not drawn) [ASM102]
